The test system of this data set is eyes of rabbits. The conditions noted are these: rabbit, intravitreal. The source says:
Fifty-two (52) healthy rabbits of the New Zealand Cross Variety (26 male, 26 female) weighing 1.5 kg to 2.5 kg, were individually marked for identification and were housed individually in suspended cages. The animals received a commercially available pelleted rabbit feed on a daily basis, with tap water available ad libitum.
The animals were divided into thirteen groups of 4 animals each (2 male, 2 female). Two animals in each group (1 male, 1 female) were selected for pretreatment fundus photography and fluorescein angiography.
The fundus photography was performed by restraining the animals and visualizing the optic nerve, retinal arcades with fundus with a KOWA® RC-3 Fundus Camera loaded with Kodak Gold 200 ASA film.
The fluorescein angiography involved a 1.5 ml injection of 2% sterile fluorescein solution via the marginal ear vein. Approximately 30 seconds post-injection the fluorescein was visualized upon localization of the optic nerve, retinal vessels and fundus.
The following day, each animal was anesthetized by intravenous administration of a combination of 34 mg/kg of ketamine hydrochloride and 5 mg/kg xylazine. The eyelids were retracted using a lid speculum, and the eyes were disinfected with an iodine-providone wash.
The experimental treatments administered to each animal group were as follows:
The day following the injections (Day 1), the 26 animals which were subjected to the fundus photography and fluorescein angiography were observed using the same methods as for the pre-dose examination.
The eyes were then surgically removed and placed in a fixture solution of 2.5% glutaraldehyde with 0.1 M phosphate buffered saline at pH 7.37.
Alternatively, one randomly selected rabbit was euthanized by pentobarbital injection but then fixed by intracardiac injection of the glutaraldehyde solution into the left ventricle to determine the effect of the fixation procedure on the histology findings within the enucleated eyes.
On Day 7, the 13 female rabbits that had been previously photographed and angiography performed were subjected to the same observations following the methods previously described.
The remaining 26 animals were euthanized as described above 7 days after dosing. The eyes were fixed in the same manner as those which had been fixed on day 2. Also, one randomly selected rabbit was subjected to the same intracardiac glutaraldehyde fixation procedure described hereabove for the previously randomly selected animal.
The eyes of the animals treated in this example were examined grossly and microscopically for evidence of treatment-related toxicities.

Read-outs that look alike come from different tables or passages of the source.

Turning to thimerosal [BSS+thimerosal], the “evidence of treatment-related toxicity in the eyes (gross and microscopic examination)” value is listed as “free of toxicity” (0.0075 mg thimerosal in BSS, day 2 post-dose); “breakdown of the blood-retinal barrier” (0.0075 mg thimerosal in BSS, day 7 post-dose); “severe treatment-related toxic effects” (0.025 mg thimerosal in BSS, days 2 and 7 post-dose). Besides, the “toxic effects observed on day 7 (FIG. 3)” value (0.0075 mg thimerosal in BSS, day 7) was “significant toxic effects”. In addition, the “toxic effects in the eyes of rabbits (conclusion)” value (at the dosages tested) is given as “do cause toxic effects”.

(Values after US20050069531A1, “Use of hyaluronidase in the manufacture of an ophthalmic preparation for liquefying vitreous humor in the treatment of eye disorders” (priority 1995, published 2005).)
